pIC50: −log10 of the molar value.
Columns and labels:
GABA uptake [1] = test: GABA-uptake inhibition in vitro, essentially as described by Fjalland, 3H-GABA as substrate; type: biochemical; conditions: two separate experiments, 3-5 concentrations, 3H-GABA substrate (25 mM [sic])
Protocol: GABA-uptake inhibition was measured essentially as described by Fjalland (Acta Pharmacol. et. Toxicol. (1978), 42, 73-76) using 25 mM of 3H-GABA as a substrate. The results obtained appears from Table 4, the obtained values being from two separate experiments using 3-5 different concentrations of test compound.

[2] = test system: DMCM induced clonic convulsions; test: Inhibition of DMCM induced convulsions in vivo; conditions: Mus musculus, ip, 0.5 h; 50% inhibition of DMCM induced clonic convulsions; i.p. 30 min before 15 mg/kg DMCM i.p.; female NMRI mice
Protocol: Inhibition of DMCM induced convulsions was measured on female NMRI mice (20±2 g).
The test compounds were injected intraperitoneally 30 min. before an intraperitoneal injection of 15 mg/kg of DMCM.

GABA uptake [3] = conditions: literature; cited from earlier work

Work on `Cc1ccsc1C(=CCCN1CCCC(C(=O)O)C1)c1cccs1` (stereo not shown) [Compound 1, N-(4-(3-Methylthien-2-yl)-4-(thien-2-yl)but-3-enyl)nipecotic acid] yielded a pIC50 (GABA uptake [1]) of 7.04.

For `Cn1cccc1C(=CCCN1CCCC(C(=O)O)C1)c1cccn1C` (stereo not shown) [Compound 2, N-(4,4-Bis(N-methylpyrrol-2-yl)but-3-enyl)nipecotic acid], the pIC50 (GABA uptake [1]) was 7.28.

In the case of `Cc1ccsc1C(=CCCN1CCC=C(C(=O)O)C1)c1cccs1` [Compound 3, N-(4-(3-Methylthien-2yl)-4-(thien-2-yl)but-3-enyl)guvacine], the pIC50 (GABA uptake [1]) was 6.87.

For `Cc1ccsc1C(=CCCN1CCC(CC(=O)O)C1)c1cccs1` (stereo not shown) [Compound 4], the pIC50 (GABA uptake [1]) was 7.14.

Work on `Cc1ccsc1C(=CCCN1CCCC(C(=O)O)C1)c1sccc1C` (stereo not shown) [Compound 5, N-(4,4-Bis(3-methylthien-2-yl)but-3-enyl)nipecotic acid] yielded a pIC50 (GABA uptake [1]) of 7.06.

In the case of `Cc1ccsc1C(=CCCN1CCC[C@@H](C(=O)O)C1)c1sccc1C` [Compound 6, R-N-(4,4-bis(3-methylthien-2-yl)but-3-enyl)-nipecotic acid], the ED50 [2] was 1.2 mg/kg and the pIC50 (GABA uptake [1]) was 7.13.

With `Cc1ccsc1C(=CCCN1CCC(CC(=O)O)C1)c1sccc1C` (stereo not drawn) [Compound 7, N-(4,4-Bis(3-methylthien-2-yl)but-3-enyl)-β-homoproline] the pIC50 (GABA uptake [1]) was 7.16.

With `O=C(O)C1CCCN(CCC=C(c2sccc2Br)c2sccc2Br)C1` (stereo not shown) [Compound 8, N-(4,4-Bis(3-bromothien-2-yl)but-3-enyl)nipecotic acid] the pIC50 (GABA uptake [1]) was 7.02.

In the case of `O=C(O)C1CCCN(CCC=C(c2ccccc2)c2cccs2)C1` (stereo not shown) [Compound 9, N-(4-phenyl-4-(2-thienyl)-3-butenyl)nipecotic acid, reference compound], the “inhibition of GABA uptake” value (GABA uptake [3]) is given as “active inhibitors of GABA uptake” and the pIC50 (GABA uptake [1]) is given as 6.33.

For `O=C(O)C1CCCN(CCC=C(c2ccccc2)c2ccccc2)C1` (stereo not shown) [Compound 10, N-(4,4-diphenyl-3-butenyl)nipecotic acid, reference compound], the “inhibition of GABA uptake” value (GABA uptake [3]) is listed as “active inhibitors of GABA uptake” and the pIC50 (GABA uptake [1]) is listed as 6.45.

For `CCOC(=O)[C@@H]1CCCN(CCC=C(c2sccc2C)c2sccc2C)C1` [Example 23, R-N-(4,4-bis(3-methylthien-2-yl)but-3-enyl)-nipecotic acid ethyl ester], the ED50 [2] was 2.5 mg/kg.

For `O=C(O)C1=CCCN(CCC=C(c2ccccc2)c2ccccc2)C1` [SK&F 100330A, N-(4,4-diphenyl-3-butenyl)guvacine], the “inhibition of GABA uptake” value (GABA uptake [3]) is listed as “active inhibitors of GABA uptake”.

For `O=C(O)CC1CCN(CCC=C(c2ccccc2)c2ccccc2)C1` (stereo not drawn) [SK&F 100561, N-(4,4-diphenyl-3-butenyl)-β-homoproline], the “inhibition of GABA uptake” value (GABA uptake [3]) is given as “active inhibitors of GABA uptake”.

— patent US5010090A, “N-(butenyl substituted) azaheterocyclic carboxylic acids” (Novo Nordisk A/S., priority 1985, dated 1991)
